From US12661308B2, “Antimicrobial AZO compounds and uses thereof” (The Regents Of The University Of Colorado, A Body Corporate, priority 2019, dated 2026)
“Also recorded” adds a separate entry of the source.

How the values were obtained:
[1] = system: S. mutans (ATCC 25175) biofilm; test: Detachment study of S. mutans biofilm on monomer-coated polymeric substrates (Example 1); assay type: cell-based, Streptococcus mutans
Experimental: The polymeric substrates were prepared by mixing 54 wt % methyl methacrylate (MMA), 30 wt % polymethylmethacrylate (PMMA, MW ˜35 k), and 16 wt % tetraethylene glycol dimethacrylate (TEGDMA) at 70° C. for 2 hr. After mixing, 1 wt. % azobisisobutyronitrile (AIBN) was added to the formulation as an initiator and mixed.
The mixed formulation was added to circular molds (diameter=6.5 mm) cut from a strip of rubber (thickness=0.9 mm) and pressed between two glass microscope slides. The mold was clamped together and thermally cured at 80° C. for 1.5 hr.
The polymeric substrates were coated as follows. Coating solutions were prepared having the following monomer concentrations (see FIG. 3 for structures of the monomers): 0.5 mg/mL and 50 mg/mL solutions of a phenolic acrylated azobenzene monomer (OH-AAZO), 50 mg/mL acrylated azobenzene monomer (AAZO), 50 mg/mL 4-hydroxyl benzylacrylate (HBA), 50 mg/mL 2-hydroxylethyl methacrylate (HEMA).
The coating solutions included the monomer in N,N′-dimethylformamide (DMF) along with 0.5 mg/mL of AIBN and 0.1 mg/mL of Rhodamine B as an indicator dye. Once mixed, 3 μL of each coating solution was pipetted onto one side of the polymeric substrate and spun at 1000 RPM for 1 min followed by spinning at 6000 RPM for 3 s. The coating was cured under a nail lamp (Melody Susie UV Gel Nail Polish Dryer, Model DR-301C) for at least 15 min before repeating the coating procedure on the other side.
The controlled growth of biofilms varied depending on the bacteria strain. In the case of S. mutans, a BHI agar plate was streaked with S. mutans (ATCC 25175) and allowed to incubate at 37° C. in 5% CO2 for 60 hr to isolate a single bacterial colony. The colony was inoculated in 5 mL of BHI and allowed to incubate statically in the 5% CO2 incubator for 24 hr. The stock solution was diluted 1:50 in a 96-well plate containing the substrates of interest and allowed to incubate in the 5% CO2 incubator for an additional 24 hr.
The detachment study quantified the biofilm grown on each substrate via a series of washes in 1×PBS. The substrate was irradiated using a dental lamp (FlashMax P3 Ortho™, 1900 mW/cm2, wavelength=450-470 nm) on the underside of the vial for a total of ten 3 s irradiations per side. Following the series of washes, the substrate was sonicated for 10 min to remove the residual biofilm on the substrate. The wash solutions were serial diluted, plated, and grown at 37° C. and 5% CO2 to obtain the CFU count.
Images collected from a digital microscope (Zeiss Axioplan II microscope, 630×, step size 0.1 μm) after the substrate and bacteria were treated with BACLIGHT Live/Dead stain are included in FIG. 4.

[2] = system: L929 mouse epithelial cells; test: MTT cytotoxicity of coated substrates (Example 3); assay type: cell-based; details: 0.5 mg/mL and 50 mg/mL coated substrates, cells grown 100 hr, relative to uncoated sample and negative control
Experimental: In this Example, the cytotoxicity of polymeric substrates coated with 0.5 mg/mL OH-AAZO and 50 mg/mL OH-AAZO in the manner described in Example 1 were tested using L929 mouse epithelial cells. The following six samples were prepared: polymeric substrate coated with 50 mg/mL OH-AAZO, polymeric substrate coated with 0.5 mg/mL OH-AAZO, uncoated polymeric substrate, positive control, negative control, and an empty well. All coatings were spin coated. All samples were run in triplicate.
The cells were grown on substrates for 100 hr with media replacement when necessary. L929 conditions: Passage 3. Initial concentration of cells: 1.67×10^4 cells/mL.
Methods and assumptions: • Wells containing MTT product were analyzed at 570 nm. • OD570 values were corrected based on OD570 values of wells containing MTT product+other reagents only (no cells). • Assumes 100% cell death (i.e., 0% cell viability) in these positive control wells. • Negative control (−) wells contained cells grown with no substrate. • Assumes all cell death occurred naturally.
Cell viability was calculated using the following equation: […]

[3] = system: A. actinomycetemcomitans (ATCC 43718) biofilm; test: Biofilm growth study, A. actinomycetemcomitans; assay type: cell-based, Aggregatibacter actinomycetemcomitans; details: 50 mg/mL coated substrate, 24 h time-period
Experimental: S. oralis and A. actinomycetemcomitans were streaked on a BHI agar plate and incubated at 37° C. and 5% CO2 for 48 h. An isolated colony was inoculated in 5 mL BHI media for 12 h under the same incubation conditions, followed by a 1:10 dilution in BHI media in a 96-well plate containing the substrates of interest. […]
(§1) Following biofilm growth in the 96-well plate, the substrates were aseptically removed from the 96-well plate and placed in a vial containing 5 mL of 1× PBS solution. The vials were sonicated in a water bath for 10 min at 45° C., and the wells that previously contained the substrates were briefly sonicated using a probe sonicator (3 W RMS output) for 10 s per well. 200 μL aliquots of the sonicated PBS solution were placed in a 96-well plate and diluted 1:10 in each subsequent row. 20 μL aliquots of the sonicated media wells were placed in a 96-well plate containing 180 μL of PBS solution and diluted 1:10 in each subsequent row. Each column was then plated at a volume of 10 μL on a BHI agar plate in triplicate. The plates were then incubated at 37° C. and 5% CO2 for 48 h. The CFUs on each plate were counted in order to quantify the amount of biofilm remaining on the surface of the substrate and the bacteria remaining in the media after the removal of the substrate using the following equations: […]

[4] = system: Methicillin-susceptible S. aureus biofilm; test: Biofilm growth study, S. aureus; assay type: cell-based, Staphylococcus aureus; details: 50 mg/mL coated substrate, 24 h time-period
Experimental: Methicillin-susceptible S. aureus biofilms were grown from a 20 h BHI liquid culture inoculated with an S. aureus colony. The liquid culture was diluted 10^3 to a stock solution in BHI, then diluted 1:10 in BHI media containing 0.4 wt. % glucose in a 96-well plate. The plate was incubated in the dark at 37 ° C. for 24 h.
as §1

[5] = system: S. agalactiae (Group B strep, GBS); test: Growth study, S. agalactiae (Group B strep); assay type: cell-based, Streptococcus agalactiae; details: 50 mg/ML coated substrates, BHI media, 24 h time-period
Experimental: A single bacterial colony was inoculated in 4 mL BHI media. The colony was grown to mid-log phase (to approximately OD600=0.4), statically at 37° C., which for was approximately 4 hours for the S. agalactiae GBS, approximately 11 hours for the S. pyogenes GAS, and approximately 6 hours for the S. pneumaoniae. They were diluted 1:5 in 80% glycerol (in water) solution (4 parts culture, 1 part glycerol, for a final glycerol concentration of 16%). In a 96-well plate, each was diluted to 1:100 resulting in a final concentration of 1×10^6 CFU/mL and grown at 37° C. with 5% CO2.

C=CC(=O)Oc1ccccc1/N=N/c1ccccc1O [OH-AAZO, phenolic acrylated azobenzene]
antibacterial effect against S. mutans ([1]; 0.5 mg/mL coating solution, compared with 50 mg/mL coating): did not result in the same antibacterial effect | S. mutans growth on the surface of the coated substrate ([1]; 50 mg/mL coating, even prior to light/wash treatment): no growth at all | S. mutans biofilm on substrate, Live/Dead stain microscopy ([1]; prior to wash/light treatment): comparatively very little biofilm | cytotoxicity (cell viability, MTT) [2]: non-cytotoxic; also recorded: does not contribute significantly to cytotoxicity | antibacterial effect on A. actinomycetemcomitans biofilm (CFUs) [3]: no discernable antibacterial effect or reduction in CFUs | antibacterial effect on S. aureus biofilm (CFUs) [4]: no discernable antibacterial effect or reduction in CFUs | S. agalactiae growth on coated substrate and in media [5]: did not grow on the coated substrate nor in the media
